The target of data set [1] is full-length FLAG-tagged B-Raf(V600E) (Homo sapiens (Human), UniProt P15056, V600E). Briefly: BRAF V600E enzyme assay (TR-FRET competitive displacement). In kind it is binding. Conditions: averaged IC50; TR-FRET tracer displacement, 60 min. A digest of the protocol: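 Displacement of 50 nM Tracer 1710 from 5 nM full-length N-terminally FLAG-tagged B-Raf(V600E), detected by TR-FRET with 0.5 nM Eu anti-FLAG antibody, in 25 mM HEPES pH 7.4, 10 mM MgCl2, 2% DMSO; 60 min at ~22 °C. Compounds 11-point, 3-fold from 10 μM; IC50 from 4-parameter fit at 50 POC.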
In general terms: Time-resolved FRET reads energy transfer from a long-lived donor to a nearby acceptor.

Data set [2] concerns WM3629 cells (BRAF D594G/NRAS G12D). Briefly: Cellular phospho-ERK inhibition assay in WM3629 cells. In kind it is cell-based. To be noted: 1 hour treatment, read-out: IC50 WM3629 pERK. The protocol: The compounds of Example 13, Example 14 and Example 126 were evaluated in a phospho-ERK assay in two mutant BRAF Class III cell lines: NCI-H1666 (BRAF^G466V) and WM3629 cells (BRAF^D594G/NRAS^G12D). NCI-H1666 cells were obtained from the American Type Culture Collection (ATCC, Rockville, MD) and WM3629 cells were obtained from Rockland Immunochemicals (Limerick, PA). Cells were maintained in RPMI growth medium containing 10% FBS.
Cells were harvested according to standard protocols, counted, and plated onto flat-bottom, 96-well tissue culture plates (Costar #3599) at 2.5×10^4 cells/well in 100 μL/well of growth medium containing 10% FBS. After an overnight incubation at 37° C. with 5% CO2 cells were treated for 1 hour at 37° C., 5% CO2 with inhibitors prepared as a 9-point, 1:3.33 fold dilution series with final compound concentrations ranging from 66 pM-10 μM and a constant DMSO concentration of 0.25%. Control wells contained either 0.25% DMSO alone (uninhibited control) or 10 μM binimetinib (complete inhibition control). The levels of phosphorylated ERK were determined using an In Cell Western protocol: following compound incubation, growth medium was discarded, and cells were fixed with 0.4% formaldehyde in PBS for 20 minutes at room temperature. Cells were permeabilized with 100% methanol for 10 minutes at room temperature. Plates were washed with PBS containing 0.05% Tween-20 and blocked for 1 hour at room temperature with LI-COR Blocking Buffer (LI-COR Biosciences; Cat. #927-40000). Plates were then incubated for 2 hours at room temperature with 50 μL of a 1:400 dilution of anti-phospho-ERK1/2 (Thr202/Tyr204) (Cell Signaling; Cat. #9101) and a 1:1000 dilution of anti-GAPDH (Millipore; Cat. #MAB374) in LI-COR blocking buffer containing 0.05% Tween-20. […] Plates were analyzed by reading on an Odyssey CLx infrared scanner. […]
[formula] • Where: • Xmax d Average Uninhibited Controls • Xmin Average Complete Inhibition Controls • IC50 values were then calculated using a 4-parameter fit in XLfit software and are shown in Table A2.

Another data set concerns the target BCRP (Homo sapiens (Human), UniProt Q9UNQ0). As to the kind of experiment: BCRP MDCKII permeability assay: efflux ratio. Type of data set: in vitro ADME. To be noted: dog.

Chain of BCRP (Q9UNQ0 whole entry): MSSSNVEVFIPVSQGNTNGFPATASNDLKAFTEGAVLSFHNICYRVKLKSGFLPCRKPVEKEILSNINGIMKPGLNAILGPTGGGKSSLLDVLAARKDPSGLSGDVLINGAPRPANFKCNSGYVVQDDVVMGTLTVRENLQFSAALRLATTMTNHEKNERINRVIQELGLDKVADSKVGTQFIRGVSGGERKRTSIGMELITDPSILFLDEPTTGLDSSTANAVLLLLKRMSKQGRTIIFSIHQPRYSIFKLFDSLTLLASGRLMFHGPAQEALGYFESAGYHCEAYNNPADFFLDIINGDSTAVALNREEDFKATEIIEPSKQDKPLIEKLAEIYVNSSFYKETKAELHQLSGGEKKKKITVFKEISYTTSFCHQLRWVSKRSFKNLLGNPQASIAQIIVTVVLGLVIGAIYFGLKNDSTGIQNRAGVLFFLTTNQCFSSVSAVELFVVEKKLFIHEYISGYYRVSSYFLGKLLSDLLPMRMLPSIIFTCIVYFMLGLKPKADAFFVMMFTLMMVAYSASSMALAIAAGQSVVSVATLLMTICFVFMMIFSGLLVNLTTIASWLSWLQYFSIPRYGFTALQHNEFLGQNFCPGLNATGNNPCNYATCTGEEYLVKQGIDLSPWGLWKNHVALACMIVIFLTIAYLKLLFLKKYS
Chain of full-length FLAG-tagged B-Raf(V600E) (P15056 whole entry V600E): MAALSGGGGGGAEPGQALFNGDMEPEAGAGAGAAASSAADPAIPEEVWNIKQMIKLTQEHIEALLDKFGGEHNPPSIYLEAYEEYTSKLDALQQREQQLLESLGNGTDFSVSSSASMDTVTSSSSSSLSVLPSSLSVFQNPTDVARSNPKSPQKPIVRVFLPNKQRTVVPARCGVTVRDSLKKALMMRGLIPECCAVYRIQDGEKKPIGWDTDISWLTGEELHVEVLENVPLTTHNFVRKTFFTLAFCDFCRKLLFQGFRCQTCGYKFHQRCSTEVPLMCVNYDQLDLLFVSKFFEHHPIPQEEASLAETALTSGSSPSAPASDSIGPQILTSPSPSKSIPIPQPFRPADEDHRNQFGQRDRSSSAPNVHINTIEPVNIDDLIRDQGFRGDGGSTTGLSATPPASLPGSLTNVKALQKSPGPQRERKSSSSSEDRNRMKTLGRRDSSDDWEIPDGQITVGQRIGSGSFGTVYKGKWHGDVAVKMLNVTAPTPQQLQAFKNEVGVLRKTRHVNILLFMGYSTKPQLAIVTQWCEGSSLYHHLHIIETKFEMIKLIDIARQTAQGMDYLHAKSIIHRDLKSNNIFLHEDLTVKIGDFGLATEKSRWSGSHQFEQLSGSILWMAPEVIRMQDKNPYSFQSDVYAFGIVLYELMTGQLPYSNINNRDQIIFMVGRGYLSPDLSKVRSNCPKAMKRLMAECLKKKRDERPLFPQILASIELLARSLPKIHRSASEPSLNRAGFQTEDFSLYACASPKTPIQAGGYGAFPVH

As a reminder, the IC50 is the concentration that inhibits the measured activity by half. A word on the efflux ratio: it is a quotient of directional permeabilities that is used to spot active efflux. As for `Cn1cnc2ccc(Nc3c(F)ccc(NS(=O)(=O)N4CC5CC4C5)c3Cl)c(F)c2c1=O` [Example 13, N-(2-chloro-4-fluoro-3-((5-fluoro-3-methyl-4-oxo-3,4-dihydroquinazolin-6-yl)amino)phenyl)-2-azabicyclo[2.1.1]hexane-2-sulfonamide], the values for the IC50 in data set [1] and in data set [2] were 6 nM and 0.7 nM, respectively. Also, the efflux ratio at 2 h, 1 µM at BCRP was determined as 1.8.

As to `Cn1cnc2ccc(Nc3c(F)ccc(NS(=O)(=O)N4CC[C@@H](F)C4)c3Cl)c(F)c2c1=O` [Example 14, (R)-N-(2-chloro-4-fluoro-3-((5-fluoro-3-methyl-4-oxo-3,4-dihydroquinazolin-6-yl)amino)phenyl)-3-fluoropyrrolidine-1-sulfonamide], the figures for the half-maximal inhibitory concentration (IC50) in data set [1] and in data set [2] were 5 nM and 0.2 nM, respectively. Moreover, at BCRP, the efflux ratio at 2 h, 1 µM came out at 5.4.

(Values after US12303509B2, “Compounds for the treatment of BRAF-associated diseases and disorders” (Pfizer Inc., priority 2020, dated 2025).)
